Reference: PubChem BioAssay (NCI)
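Exposure lasted 48 hours, with cells grown in 96-well plates and compounds tested at five concentrations. TGI: concentration producing complete growth inhibition.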

Columns and labels:
Experiment in all cases: NCI tumour cell line growth inhibition, 48 h
[1] = test system: T-47D breast
[2] = test system: M14 melanoma
[3] = test system: PC-3 prostate
[4] = test system: A498 renal
[5] = test system: OVCAR-8 ovarian
[6] = test system: NCI-H522 lung
[7] = test system: MOLT-4 leukemia
[8] = test system: SK-MEL-5 melanoma
[9] = test system: COLO 205 colon
[10] = test system: ACHN renal
[11] = test system: HCC-2998 colon
[12] = test system: HL-60(TB) leukemia
[13] = test system: SK-MEL-2 melanoma
[14] = test system: BT-549 breast
[15] = test system: K-562 leukemia
[16] = test system: OVCAR-3 ovarian
[17] = test system: HCT-116 colon
[18] = test system: CAKI-1 renal
[19] = test system: LOX IMVI melanoma
[20] = test system: NCI-H460 lung
[21] = test system: UACC-257 melanoma
[22] = test system: OVCAR-4 ovarian
[23] = test system: MDA-N
[24] = test system: HOP-62 NSCLC
[25] = test system: SF-268 CNS
[26] = test system: OVCAR-5 ovarian
[27] = test system: HS 578T breast
[28] = test system: HCT-15 colon
[29] = test system: HT29 colon
[30] = test system: SF-295 CNS
[31] = test system: EKVX NSCLC
[32] = test system: 786-0 renal
[33] = test system: SK-MEL-28 melanoma
[34] = test system: MCF7 breast
[35] = test system: SK-OV-3 ovarian
[36] = test system: NCI/ADR-RES ovarian
[37] = test system: A549 NSCLC
[38] = test system: CCRF-CEM leukemia
[39] = test system: IGROV1 ovarian
[40] = test system: U251 CNS
[41] = test system: MDA-MB-435
[42] = test system: SN12C renal
[43] = test system: UO-31 renal
[44] = test system: MALME-3M melanoma
[45] = test system: SR leukemia
[46] = test system: SW-620 colon
[47] = test system: HOP-92 NSCLC
[48] = test system: SNB-19 CNS
[49] = test system: KM12 colon
[50] = test system: UACC-62 melanoma
[51] = test system: RPMI-8226 leukemia

With COc1ccc(C2=Nn3c(nnc3-c3ccccc3)S/C2=C\c2ccc(-c3ccc([N+](=O)[O-])cc3)o2)cc1 the TGI [1] was over 100 µM, the TGI [2] was 86.1 µM and the TGI [3] was over 100 µM. It also gave a TGI [4] of over 100 µM, a TGI [5] of over 100 µM and a TGI [6] of 81.8 µM. For the same compound, the TGI [7] was 76.6 µM, the TGI [8] was over 100 µM and the TGI [9] was 70 µM. It also gave a TGI [10] of over 100 µM, a TGI [11] of over 100 µM and a TGI [12] of 59 µM. It also gave a TGI [13] of 67.6 µM, a TGI [14] of over 100 µM and a TGI [15] of 88.8 µM. For the same compound, the TGI [16] was over 100 µM, the TGI [17] was over 100 µM and the TGI [18] was over 100 µM. The TGI [19] was over 100 µM, the TGI [20] was over 100 µM and the TGI [21] was over 100 µM. It also gave a TGI [22] of over 100 µM, a TGI [23] of over 100 µM and a TGI [24] of over 100 µM. For the same compound, the TGI [25] was over 100 µM, the TGI [26] was over 100 µM and the TGI [27] was over 100 µM. For the same compound, the TGI [28] was over 100 µM, the TGI [29] was 90.3 µM and the TGI [30] was over 100 µM. The TGI [31] was over 100 µM, the TGI [32] was over 100 µM and the TGI [33] was over 100 µM. For the same compound, the TGI [34] was over 100 µM, the TGI [35] was over 100 µM and the TGI [36] was over 100 µM. The TGI [37] was over 100 µM, the TGI [38] was 32.7 µM and the TGI [39] was over 100 µM. It also gave a TGI [40] of over 100 µM, a TGI [41] of 51.3 µM and a TGI [42] of over 100 µM. For the same compound, the TGI [43] was over 100 µM, the TGI [44] was over 100 µM and the TGI [45] was over 100 µM. The TGI [46] was over 100 µM, the TGI [47] was over 100 µM and the TGI [48] was over 100 µM. For the same compound, the TGI [49] was over 100 µM, the TGI [50] was over 100 µM and the TGI [51] was 80.2 µM.
